{"source": "patent US20120065267A1", "about": "“COMPOSITIONS INCLUDING 3,5-L-T2 AND METHODS OF USE THEREOF” (priority 2010, published 2012)", "key": {"[1]": {"test_system": "C57, LDLr+/− and LDLr0 mice", "test": "Serum triglycerides in mice on Western Diet given daily oral T2", "assay_type": "in vivo", "set-up": "Triglycerides / Triglycerides (Ave): unit not given here", "procedure": "(§1) This corresponds to a dosage for an 80 kg human of about 20-200 mg/day, or a low dose of about 0.2-0.3 mg/kg of body weight to a high dose of about 2-3 mg/kg of body weight. One will appreciate, however, that some subjects (e.g., subjects having very low LDL receptor function) may receive higher doses, depending on need. likewise, some subjects may receive lower doses, which again depends on need. Mice in the study were fed a standard lab chow referred to as the “Western Diet.” The overall level of fat and the saturated nature of the fat are representative diets typical in the industrialized west that are linked to risk of cardiovascular disease in humans. The formula is used primarily with genetically manipulated rodent models that are susceptible to high cholesterol and cardiovascular disease. The diet may also be useful in diet-induced obesity, diabetes, and metabolic syndrome models. High cholesterol, obesity, and diabetes are each associated increased risk for cardiovascular disease. The composition of the Western Diet is shown below. C57 is a wild-type strain, LDLr+/− are a strain carrying one functional copy of the LDLr gene, and the LDLr0 animals are total LDLr knockouts. The LDLr gene encodes for the LDL receptor protein, which is responsible for scavenging LDL with bound cholesterol from the blood and transporting it into cells. Both heterozygous and homozygous LDLr knockout animals develop very high serum cholesterol levels and are considered to be a good model for heterozygous and homozygous familial hypercholesterolemia in humans. […] LDLr knockout animals have zero LDL receptor function."}, "[2]": {"test": "Body weight of mice on Western Diet given low or high dose T2", "assay_type": "in vivo", "procedure": "as §1"}}, "note": "Values joined by “and” are separate entries in the source; they are usually repeats but may differ in a detail not shown here. Identical values can stand only once.", "data": [{"compound": "N[C@@H](Cc1cc(I)c(Oc2ccc(O)cc2)c(I)c1)C(=O)O", "note": "[T2, (2S)-2-amino-3-[4-(4-hydroxyphenoxy)-3,5-diiodophenyl]propanoic acid]", "values": [{"measurement": "Triglycerides (Ave)", "setting": "[1]; C57 mice, 1 Week High Dose, T2 2.5 mg/kg daily oral, group average", "result": 55.8}, {"measurement": "Triglycerides", "setting": "[1]; C57 mice, 1 Week High Dose, T2 2.5 mg/kg daily oral, individual animal, 2.5 mg/kg", "result": "42.161 and 68.02 and 45.486 and 50.657 and 72.822"}, {"measurement": "Triglycerides (Ave)", "setting": "[1]; C57 mice, 1 Week Low Dose, T2 0.25 mg/kg daily oral, group average", "result": 29.5}, {"measurement": "Triglycerides", "setting": "[1]; C57 mice, 1 Week Low Dose, T2 0.25 mg/kg daily oral, individual animal, 0.25 mg/kg", "result": "24.835 and 29.673 and 13.299 and 36.371 and 43.441"}, {"measurement": "Triglycerides (Ave)", "setting": "[1]; LDLr0 mice (first group), 1 Week High Dose, T2 2.5 mg/kg daily oral, group average", "result": 192.1}, {"measurement": "Triglycerides", "setting": "[1]; LDLr0 mice (first group), 1 Week High Dose, T2 2.5 mg/kg daily oral, individual animal, 2.5 mg/kg", "result": "173.672 and 210.614"}, {"measurement": "Triglycerides (Ave)", "setting": "[1]; LDLr0 mice (first group), 1 Week Low Dose, T2 0.25 mg/kg daily oral, group average", "result": 183.0}, {"measurement": "Triglycerides", "setting": "[1]; LDLr0 mice (first group), 1 Week Low Dose, T2 0.25 mg/kg daily oral, individual animal, 0.25 mg/kg", "result": "230.244 and 106.329 and 212.382"}, {"measurement": "Triglycerides (Ave)", "setting": "[1]; LDLr0 mice (second group), 1 Week Low Dose, T2 0.25 mg/kg daily oral, group average", "result": 236.2}, {"measurement": "Triglycerides", "setting": "[1]; LDLr0 mice (second group), 1 Week Low Dose, T2 0.25 mg/kg daily oral, individual animal, 0.25 mg/kg", "result": "183.413 and 260.001 and 239.273 and 268.082 and 244.895 and 177.441 and 263.163 and 252.975"}, {"measurement": "Triglycerides (Ave)", "setting": "[1]; LDLr0 mice (second group), 2 Week High Dose (as headed), daily oral T2, group average", "result": 356.5}, {"measurement": "Triglycerides", "setting": "[1]; LDLr0 mice (second group), 2 Week High Dose (as headed), daily oral T2, individual animal", "result": "225.895 and 274.993 and 402.246 and 281.673 and 462.031 and 223.557 and 485.745 and 496.099"}, {"measurement": "Triglycerides (Ave)", "setting": "[1]; LDLr+/− mice, 1 Week High Dose, T2 2.5 mg/kg daily oral, group average", "result": 52.1}, {"measurement": "Triglycerides", "setting": "[1]; LDLr+/− mice, 1 Week High Dose, T2 2.5 mg/kg daily oral, individual animal, 2.5 mg/kg", "result": "40.683 and 35.511 and 62.848 and 68.389 and 37.359 and 68.02"}, {"measurement": "Triglycerides (Ave)", "setting": "[1]; LDLr+/− mice, 1 Week Low Dose, T2 0.25 mg/kg daily oral, group average", "result": 31.4}, {"measurement": "Triglycerides", "setting": "[1]; LDLr+/− mice, 1 Week Low Dose, T2 0.25 mg/kg daily oral, individual animal, 0.25 mg/kg", "result": "12.927 and 34.138 and 40.464 and 29.673 and 31.161 and 40.092"}, {"measurement": "effect on serum triglyceride levels", "setting": "[1]; low and high dose T2, all genotypes", "result": "did not affect"}, {"measurement": "Body weight (Ave)", "setting": "[2]; C57 mice, High Dose T2 2.5 mg/kg daily oral, Day 1, group average", "result": 28.1, "unit": "g"}, {"measurement": "Body weight", "setting": "[2]; C57 mice, High Dose T2 2.5 mg/kg daily oral, Day 1, individual animal, 2.5 mg/kg", "result": "29.6 (2×) and 24.9 and 29.8 and 26.7"}, {"measurement": "Body weight (Ave)", "setting": "[2]; C57 mice, High Dose T2 2.5 mg/kg daily oral, Day 2, group average", "result": 28.4, "unit": "g"}, {"measurement": "Body weight", "setting": "[2]; C57 mice, High Dose T2 2.5 mg/kg daily oral, Day 2, individual animal, 2.5 mg/kg, in g (unit assumed)", "result": "29.5 and 30.1 and 25.8 and 29.7 and 27.1"}, {"measurement": "Body weight (Ave)", "setting": "[2]; C57 mice, High Dose T2 2.5 mg/kg daily oral, Day 3, group average", "result": 28.4, "unit": "g"}, {"measurement": "Body weight", "setting": "[2]; C57 mice, High Dose T2 2.5 mg/kg daily oral, Day 3, individual animal, 2.5 mg/kg, in g (unit assumed)", "result": "29.8 and 30.0 and 25.1 and 29.9 and 27.2"}, {"measurement": "Body weight (Ave)", "setting": "[2]; C57 mice, High Dose T2 2.5 mg/kg daily oral, Day 4, group average", "result": 27.4, "unit": "g"}, {"measurement": "Body weight", "setting": "[2]; C57 mice, High Dose T2 2.5 mg/kg daily oral, Day 4, individual animal, 2.5 mg/kg, in g (unit assumed)", "result": "29.1 and 28.7 and 23.4 and 28.8 and 27"}, {"measurement": "Body weight (Ave)", "setting": "[2]; C57 mice, High Dose T2 2.5 mg/kg daily oral, Day 5, group average", "result": 27.7, "unit": "g"}, {"measurement": "Body weight", "setting": "[2]; C57 mice, High Dose T2 2.5 mg/kg daily oral, Day 5, individual animal, 2.5 mg/kg, in g (unit assumed)", "result": "29.7 and 29.1 and 24.1 and 28.5 and 27.3"}, {"measurement": "Body weight (Ave)", "setting": "[2]; C57 mice, Low Dose T2 0.25 mg/kg daily oral, Day 1, group average", "result": 25.2, "unit": "g"}, {"measurement": "Body weight", "setting": "[2]; C57 mice, Low Dose T2 0.25 mg/kg daily oral, Day 1, individual animal, 0.25 mg/kg, in g (unit assumed)", "result": "26.5 and 27.0 and 23.0 and 26.4 and 24.0 and 24.1"}, {"measurement": "Body weight (Ave)", "setting": "[2]; C57 mice, Low Dose T2 0.25 mg/kg daily oral, Day 2, group average", "result": 26.1, "unit": "g"}, {"measurement": "Body weight", "setting": "[2]; C57 mice, Low Dose T2 0.25 mg/kg daily oral, Day 2, individual animal, 0.25 mg/kg, in g (unit assumed)", "result": "28.2 and 27.7 and 24.1 and 26.3 and 25.5 and 24.9"}, {"measurement": "Body weight (Ave)", "setting": "[2]; C57 mice, Low Dose T2 0.25 mg/kg daily oral, Day 3, group average", "result": 26.5, "unit": "g"}, {"measurement": "Body weight", "setting": "[2]; C57 mice, Low Dose T2 0.25 mg/kg daily oral, Day 3, individual animal, 0.25 mg/kg, in g (unit assumed)", "result": "28.3 and 27.8 and 23.3 and 27.9 and 26.2 and 25.6"}, {"measurement": "Body weight (Ave)", "setting": "[2]; C57 mice, Low Dose T2 0.25 mg/kg daily oral, Day 4, group average", "result": 25.8, "unit": "g"}, {"measurement": "Body weight", "setting": "[2]; C57 mice, Low Dose T2 0.25 mg/kg daily oral, Day 4, individual animal, 0.25 mg/kg, in g (unit assumed)", "result": "26.8 and 27.2 and 23.7 and 26.7 and 25.1 and 25.4"}, {"measurement": "Body weight (Ave)", "setting": "[2]; C57 mice, Low Dose T2 0.25 mg/kg daily oral, Day 5, group average", "result": 26.8, "unit": "g"}, {"measurement": "Body weight", "setting": "[2]; C57 mice, Low Dose T2 0.25 mg/kg daily oral, Day 5, individual animal, 0.25 mg/kg, in g (unit assumed)", "result": "27.3 and 28.3 and 24.5 and 27.5 and 26.4"}, {"measurement": "Body weight (Ave)", "setting": "[2]; C57 mice, Low Dose T2 0.25 mg/kg daily oral, Day 6, group average", "result": 27.5, "unit": "g"}, {"measurement": "Body weight", "setting": "[2]; C57 mice, Low Dose T2 0.25 mg/kg daily oral, Day 6, individual animal, 0.25 mg/kg, in g (unit assumed)", "result": "28.1 and 29.9 and 24.8 and 28.7 and 26.1"}, {"measurement": "Body weight (Ave)", "setting": "[2]; C57 mice, Low Dose T2 0.25 mg/kg daily oral, Day 7, group average", "result": 28.3, "unit": "g"}, {"measurement": "Body weight", "setting": "[2]; C57 mice, Low Dose T2 0.25 mg/kg daily oral, Day 7, individual animal, 0.25 mg/kg, in g (unit assumed)", "result": "29.5 and 30.7 and 26.2 and 29.0 and 26.1"}, {"measurement": "Body weight (Ave)", "setting": "[2]; LDLr0 mice, High Dose T2 2.5 mg/kg daily oral, Day 1, group average", "result": 25.7, "unit": "g"}, {"measurement": "Body weight", "setting": "[2]; LDLr0 mice, High Dose T2 2.5 mg/kg daily oral, Day 1, individual animal, 2.5 mg/kg, in g (unit assumed)", "result": "23.9 and 27.4"}, {"measurement": "Body weight (Ave)", "setting": "[2]; LDLr0 mice, High Dose T2 2.5 mg/kg daily oral, Day 2, group average", "result": 24, "unit": "g"}, {"measurement": "Body weight", "setting": "[2]; LDLr0 mice, High Dose T2 2.5 mg/kg daily oral, Day 2, individual animal, 2.5 mg/kg, in g (unit assumed)", "result": "23.1 and 24.8"}, {"measurement": "Body weight (Ave)", "setting": "[2]; LDLr0 mice, High Dose T2 2.5 mg/kg daily oral, Day 3, group average", "result": 23.9, "unit": "g"}, {"measurement": "Body weight", "setting": "[2]; LDLr0 mice, High Dose T2 2.5 mg/kg daily oral, Day 3, individual animal, 2.5 mg/kg, in g (unit assumed)", "result": "22.8 and 24.9"}, {"measurement": "Body weight (Ave)", "setting": "[2]; LDLr0 mice, High Dose T2 2.5 mg/kg daily oral, Day 4, group average", "result": 24.2, "unit": "g"}, {"measurement": "Body weight", "setting": "[2]; LDLr0 mice, High Dose T2 2.5 mg/kg daily oral, Day 4, individual animal, 2.5 mg/kg, in g (unit assumed)", "result": "23.5 and 24.8"}, {"measurement": "Body weight (Ave)", "setting": "[2]; LDLr0 mice, High Dose T2 2.5 mg/kg daily oral, Day 5, group average", "result": 24.2, "unit": "g"}, {"measurement": "Body weight", "setting": "[2]; LDLr0 mice, High Dose T2 2.5 mg/kg daily oral, Day 5, individual animal, 2.5 mg/kg, in g (unit assumed)", "result": "23.1 and 25.3"}, {"measurement": "Body weight (Ave)", "setting": "[2]; LDLr0 mice, Low Dose T2 0.25 mg/kg daily oral, Day 1, group average", "result": 22.3, "unit": "g"}, {"measurement": "Body weight", "setting": "[2]; LDLr0 mice, Low Dose T2 0.25 mg/kg daily oral, Day 1, individual animal, 0.25 mg/kg, in g (unit assumed)", "result": "23.1 and 21.1 and 22.7 and 22.1"}, {"measurement": "Body weight (Ave)", "setting": "[2]; LDLr0 mice, Low Dose T2 0.25 mg/kg daily oral, Day 2, group average", "result": 22.8, "unit": "g"}, {"measurement": "Body weight", "setting": "[2]; LDLr0 mice, Low Dose T2 0.25 mg/kg daily oral, Day 2, individual animal, 0.25 mg/kg, in g (unit assumed)", "result": "21.6 and 23.6 and 23.2"}, {"measurement": "Body weight (Ave)", "setting": "[2]; LDLr0 mice, Low Dose T2 0.25 mg/kg daily oral, Day 3, group average", "result": 23.4, "unit": "g"}]}]}
